Key:
Assay type in all cases: cell-based
Details in all cases: 3 days incubation
[1] = test system: Lumican synthesis in normal human fibroblasts (NHF); assay: Lumican synthesis in normal human fibroblasts (EIA)
Procedure: (§1) Normal human fibroblasts (NHF) were grown in 96 well culture plates (Nunclon). After three days a tripeptide derivative of the present invention was added in medium without FCS and the cells were incubated for an additional three days. To measure Lumican synthesis an enzyme linked immunoassay (EIA) was performed. In brief: the cells were fixed with 4% paraformaldehyde, and permeabilized with 0.5 Triton-X100 followed by blocking of unspecific binding sites with 5% skim milk. To stain for Lumican the cells were incubated with goat-anti-Lumican (L-20) antibody (Santa Cruz Biotechnology, sc-27718) which was detected with goat-anti-mouse HRP conjugated (Pierce) secondary antibody. After addition of substrate Lumican synthesis was measured at 492 nm in an absorbance plate reader (Multiskan Ascent, Thermolabsystems).
(§2) The results were evaluated relative to a control consisting of cells that have not been treated with the tripeptide derivative of formula (I) and which is set to 100%.

[2] = test system: Hyaluronan synthesis in normal human fibroblasts (NHF); assay: Hyaluronan synthesis in normal human fibroblasts (Hyaluronan Assay Kit)
Procedure: Normal human fibroblasts (NHF) were seeded in 96 well cell culture plates (Nunclon). After three days of growth a tripeptide derivative of the present invention was added in medium without FCS and the cells were incubated for an additional three days. Secreted Hyaluronan synthesis in the growth medium was measured using the Hyaluronan Assay Kit from Echelon (Salt Lake City, Utah).
as §2

[3] = test system: Decorin synthesis in normal human fibroblasts (NHF); assay: Decorin synthesis in normal human fibroblasts (EIA)
Procedure: as §1, with “well cell” for “well”, “Decorin” for “Lumican”, “goat-anti-Decorin” for “goat-anti-Lumican (L-20)”, “(R&Dsystems)” for “(Santa Cruz Biotechnology, sc-27718)”, “rabbit-anti-goat” for “goat-anti-mouse”
as §2

[4] = 100 μM, relative to untreated control
[5] = 25 μM, untreated control = 100%
[6] = 50 μM, untreated control = 100%
[7] = 10 μM, untreated control = 100%
[8] = 12.5 μM, untreated control = 100%

Substance | Synthesis Stimulation of Lumican [1, 4] | Synthesis Stimulation of Hyaluronan [2, 4] | Synthesis Stimulation of Decorin [3, 4] | Synthesis Stimulation of Hyaluronan [2, 5] | other results
Caprinoyl-Lys-Val-Lys-OH*2TFA [Tripeptide No 13] | inactive | inactive | inactive | – | –
H-Lys-Val-Lys-OH *3 TFA [Tripeptide No 15] | inactive | inactive | inactive | – | –
Lauroyl-Lys-Val-Lys-OH*2TFA [Tripeptide No 12] | inactive | inactive | inactive | – | –
Myristoyl-Lys-Val-Lys-OH*2TFA [Tripeptide No 11] | inactive | inactive | inactive | – | –
Palm-Lys-Ile-Dab-OH *2TFA [Tripeptide No 4] | – | – | – | 180% | –
Palm-Lys-Leu-Dab-OH *2TFA [Tripeptide No 6] | – | – | – | – | Synthesis Stimulation of Hyaluronan [2, 6]: 220%
Palm-Lys-Leu-Lys-OH *2 TFA [Tripeptide No 3] | – | – | – | 180% | –
Palm-Lys-Nva-Dab-OH *2TFA [Tripeptide No 5] | – | – | – | 220% | –
Palm-Lys-Val-Dab-NH-Hexadecyl *2 TFA [Tripeptide No 7] | – | – | – | 300% | –
Palm-Lys-Val-Dab-OH *2 TFA [Tripeptide No 18] | inactive | inactive | inactive | – | –
Palm-Lys-Val-Dap-OH *2 TFA [Tripeptide No 17] | inactive | inactive | inactive | – | –
Palm-Lys-Val-Lys-OH *2 TFA [Tripeptide No 1] | – | – | – | – | Synthesis Stimulation of Lumican [1, 7]: 120%; Synthesis Stimulation of Hyaluronan [2, 7]: 220%; Synthesis Stimulation of Decorin [3, 5]: 200%/25 μM
Palm-Lys-Val-Orn-OH *2 TFA [Tripeptide No 16] | inactive | inactive | inactive | – | –
Palm-Orn-Val-Lys-OH *2 TFA [Tripeptide No 2] | – | – | – | – | Synthesis Stimulation of Hyaluronan [2, 6]: 180%
Stearoyl-Lys-Val-Lys-OH*2TFA [Tripeptide No 14] | inactive | inactive | inactive | – | –
Tetradecyl-NH—C(O)-Arg-Val-Arg-OH *2 TFA [Tripeptide No 10] | – | – | – | 220% | –
Tetradecyl-NH—C(O)-Dab-Val-Dab-OH *2 TFA [Tripeptide No 8] | – | – | – | – | Synthesis Stimulation of Lumican ([1]; 100 μM, untreated control = 100%): 165%/100 μM; Synthesis Stimulation of Hyaluronan [2, 8]: 400%; Synthesis Stimulation of Decorin [3, 8]: 170%
Tetradecyl-NH—C(O)-Lys-Ile-Dab-OH *2 TFA [Tripeptide No 9] | – | – | – | 220% | –

Source: patent publication US20120094919A1, “USE OF TRIPEPTIDES” (priority 2009, published 2012)
